Measurements published in patent US5466675A, “Immunological activity of rhamnolipids” (priority 1992, dated 1995).

Legend:
[1] = tested on: T-cells isolated from mouse thymus; test: T-lymphocyte proliferation + Con A; assay type: cell-based
Experimental: Procedure: T-cells were isolated from mouse thymus using conventional procedures, and suspended in DMEM. 5×10^6 cells/ml are incubated overnight at 37° C. in the presence of 3 ug/ml Con A to assess stimulation (positive score, related to 10 U/ml rat interleukin-2) or suppression (negative score, related to control) of cell proliferation. Test substance was evaluated under these conditions at 10, 1, 0.1 and 0.01 uM. After overnight incubation, 2 uCi [^3 H] thymidine is added to each well. Cells were harvested after an additional 48 hour incubation, and thymidine incorporation assessed by liquid scintillation counting.

[2] = tested on: sheep red blood cell (SRBC) hemagglutination; test: immunostimulation (humoral): sheep red blood cell (SRBC) hemagglutination; assay type: in vivo, mouse (ICR, female)
Experimental: Groups of 6 mice were sensitized by the IV injection of 0.2 ml of a 2% SRBC suspension. On the 9th day following sensitization, blood samples were withdrawn from the orbital sinus and equal parts of complement inactivated serum from the group of 6 mice were pooled to yield a single 0.25 ml sample. Serial 2-fold dilutions were then carried out 10 times in the presence of added complement. […] Serum titers of less than 16 or greater than 128 are considered significant and indicate possible immunosuppressant and immunostimulant activity, respectively.
For immunostimulant activity, test substance or vehicle was administered i.p. to groups of mice for 3 consecutive days, and sensitized to SRBCs 2 hours after the third (last) injection. For immunosuppressant activity, test substance or vehicle was administered i.p. to groups of mice for 3 consecutive days beginning 2 hours after sensitization to SRBCs.

carboxypeptidase A = test: enzyme inhibition, carboxypeptidase A; assay type: biochemical
Experimental: (§1) Rhamnolipid (II) was tested in vitro against a wide array of enzymes.
The following enzymes were inhibited at the various rhamnolipid concentrations indicated:
(§2) All enzyme assays were done spectrophotometrically by computer linked automatic microplate reader (Labsystem Multiskan) and Diode Array spectrophotometer (Perkin Elmer).

Candida albicans [3] = test: immunorestoration: immunosuppression with cyclophosphamide and infection with Candida albicans; assay type: in vivo, mouse (ICR, female); details: for Survivor No.: n = 10
From the text: […] One day after the last immunosuppressant dose, the mice were challenged with a suspension of C. albicans sufficient to result in 90 to 100 percent mortality within 10 days in the vehicle treated control group. A greater than 30 percent survival for any drug treated group is considered significant, and possibly a result of immunorestorant activity.

Candida albicans [4] = test: immunomodulation: infection with Candida albicans; assay type: in vivo, mouse (ICR, female); details: for Survivor No.: n = 10
Experimental: The test compound or vehicle was administered i.p. to groups of 10 mice 1 hour before IV, challenge with suspension of C. albicans sufficient to result in 90 to 100% mortality within 10 days in the vehicle treated control group. A greater than 30 percent survival for any treated group is considered very significant, and possibly a result of immunomodulation, while an increase of 20% is considered a moderate immunomodulation activity.

P59fyn Tyrosine Kinase = P59fyn Tyrosine Kinase (Homo sapiens, UniProt P06241); test: enzyme inhibition, p59fyn tyrosine kinase; assay type: biochemical; details: 0.5% DMSO
Experimental: as §1, §2

Lichen ruber planus = details: 1% rhamnolipid ointment; Belgium patent No. 1,005,704; cited from earlier work
Pseudomonas aeruginosa = test: minimum inhibitory concentration, Pseudomonas aeruginosa; assay type: cell-based; details: in tested medium
From the text: The Minimum inhibitory concentration (MIC) of Rhamnolipid II for Candida albicans, Escherichia coli, Staphylococcus aureus and Pseudomonas aeruginosa was >0.5% in tested medium.

coxsackie B2 virus = test: effect on viruses, coxsackie B2; assay type: cell-based; details: concentrations ≤100 ug/ml
Experimental: Tests were performed according to D. A. Vanden Berghe et al., Inst. Pasteur 84,101 (1986). Rhamnolipid (II) was toxic for VERO cells in concentrations ≥200 ug/ml, and cytotoxic on MT4 cells in concentrations >169.40 ug/ml.

bacterial revertants = test: Ames test; assay type: cell-based; details: 10, 100, 200, 500, 1000 ug/plate
Experimental: Tests were performed according to the method described by Ames N. Bruce et al. (Mutation Research, 31 (1975), 347- 364). Test concentrations of rhamnolipid (II) were 10, 100, 200, 500, 1000 ug/plate.
In the range of tested rhamnolipid concentrations, the number of bacterial revertants per Petri dish was in the range of spontaneous revertants which are present without S9 mixture. Therefore, it can be concluded that Rhamnolipid (II) was not mutagenic at the tested concentrations.

[5] = IP 0.1 × 3 mg/kg + cyclophosphamide
[6] = IP 1 × 3 mg/kg + cyclophosphamide
[7] = IP 10 × 3 mg/kg + cyclophosphamide
[8] = IP 100 × 3 mg/kg + cyclophosphamide

Sequence of P59fyn Tyrosine Kinase (P06241 whole entry): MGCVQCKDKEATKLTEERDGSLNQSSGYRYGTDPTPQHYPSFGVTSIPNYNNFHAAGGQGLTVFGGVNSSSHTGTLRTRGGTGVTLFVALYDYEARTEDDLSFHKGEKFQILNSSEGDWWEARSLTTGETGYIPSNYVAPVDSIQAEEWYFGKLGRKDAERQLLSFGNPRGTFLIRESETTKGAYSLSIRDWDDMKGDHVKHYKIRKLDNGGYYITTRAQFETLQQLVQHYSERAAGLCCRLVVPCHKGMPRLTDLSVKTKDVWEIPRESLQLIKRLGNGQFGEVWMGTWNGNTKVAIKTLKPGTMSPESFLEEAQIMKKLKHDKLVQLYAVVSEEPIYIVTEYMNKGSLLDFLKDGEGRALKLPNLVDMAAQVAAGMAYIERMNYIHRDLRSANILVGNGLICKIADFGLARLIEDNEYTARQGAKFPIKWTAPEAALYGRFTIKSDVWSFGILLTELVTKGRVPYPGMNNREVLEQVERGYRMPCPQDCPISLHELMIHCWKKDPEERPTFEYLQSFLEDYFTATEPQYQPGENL

In the case of `CCCCCCCC(CC(=O)O)OC(=O)CC(CCCCCCC)O[C@@H]1O[C@@H](C)[C@H](O)[C@@H](O)[C@H]1O[C@@H]1O[C@@H](C)[C@H](O)[C@@H](O)[C@H]1O` (stereo partly drawn) [Rhamnolipid (II), (alpha-L-rhamnopyranosyl-(1,2)alpha-L-rhamnopyranosyl)-3-hydroxydecanoyl-3-hydroxydecanoic acid], the T-cell proliferation ([1]; 10 uM, with Con A) is reported as “inhibited”, the “in vitro T cell immunosuppression activity” value ([1]; 10 uM, with ConA) is reported as “T cell immunosuppression activity” and the activation at 0.001 µM ([1]; Mus musculus, T-cell, read-out: % Stimulation (+)/Suppression (-)) is reported as 4%. It also gave an activation at 0.01 µM ([1]; Mus musculus, T-cell, 0.01 uM, ConA, 0.5% DMSO, read-out: % Stimulation (+)/Suppression (-)) of 7%, an activation at 0.1 µM ([1]; Mus musculus, T-cell, 0.1 uM, ConA, 0.5% DMSO, read-out: % Stimulation (+)/Suppression (-)) of 7% and an activation at 1 µM ([1]; Mus musculus, T-cell, 1 uM, ConA, 0.5% DMSO, read-out: % Stimulation (+)/Suppression (-)) of 3%. The activation at 10 µM ([1]; Mus musculus, T-cell, 10 uM, ConA, 0.5% DMSO, read-out: % Stimulation (+)/Suppression (-)) was -43%, the “SERUM TITER (Reciprocal Serum Dilution)” value ([2]; IP 0.1 × 3 mg/kg) was 64 and the “SERUM TITER (Reciprocal Serum Dilution)” value ([2]; IP 1 × 3 mg/kg) was 64. The “SERUM TITER (Reciprocal Serum Dilution)” value ([2]; IP 10 × 3 mg/kg) was 128, the “SERUM TITER (Reciprocal Serum Dilution)” value ([2]; IP 100 × 3 mg/kg) was 8 and the “died on Day 3” value ([2]; IP 100 × 3 mg/kg) was 1/6. For the same compound, the “concentration at which the enzyme was inhibited” value (carboxypeptidase A) was 1 mg/mL, the “Death, days post-inoculum 0-1” value (Candida albicans [3]; [5]) was 2 #/10 Mice and the “Death, days post-inoculum 2-3” value (Candida albicans [3]; [5]) was 1 #/10 Mice. The “Death, days post-inoculum 4-6” value (Candida albicans [3]; [5]) was 1 #/10 Mice, the “Death, days post-inoculum 7-9” value (Candida albicans [3]; [5]) was 2 #/10 Mice and the “Response Inc. %” value (Candida albicans [3]; [5]) was 20%. For the same compound, the “Survivor No.” value (Candida albicans [3]; [5]) was 4, the “Death, days post-inoculum 0-1” value (Candida albicans [3]; [6]) was 2 #/10 Mice and the “Death, days post-inoculum 2-3” value (Candida albicans [3]; [6]) was 2 #/10 Mice. The “Death, days post-inoculum 4-6” value (Candida albicans [3]; [6]) was 1 #/10 Mice, the “Death, days post-inoculum 7-9” value (Candida albicans [3]; [6]) was 1 #/10 Mice and the “Response Inc. %” value (Candida albicans [3]; [6]) was 20%. For the same compound, the “Survivor No.” value (Candida albicans [3]; [6]) was 4, the “Death, days post-inoculum 0-1” value (Candida albicans [3]; [7]) was 2 #/10 Mice and the “Death, days post-inoculum 2-3” value (Candida albicans [3]; [7]) was 1 #/10 Mice. The “Death, days post-inoculum 4-6” value (Candida albicans [3]; [7]) was 1 #/10 Mice, the “Death, days post-inoculum 7-9” value (Candida albicans [3]; [7]) was 0 #/10 Mice and the “Response Inc. %” value (Candida albicans [3]; [7]) was 40%. For the same compound, the “Survivor No.” value (Candida albicans [3]; [7]) was 6, the “Death, days post-inoculum 0-1” value (Candida albicans [3]; [8]) was 1 #/10 Mice and the “Death, days post-inoculum 2-3” value (Candida albicans [3]; [8]) was 1 #/10 Mice. For the same compound, the “Death, days post-inoculum 4-6” value (Candida albicans [3]; [8]) was 1 #/10 Mice, the “Death, days post-inoculum 7-9” value (Candida albicans [3]; [8]) was 0 #/10 Mice and the “Response Inc. %” value (Candida albicans [3]; [8]) was 50%. The “Survivor No.” value (Candida albicans [3]; [8]) was 7, the “in vivo immunorestoration activity” value (Candida albicans [3]; summary, no dose stated) was “very strong” and the immunomodulation activity (Candida albicans [4]; 10 mg/kg and 1 mg/kg) was “moderate activity”. The “Death, days post-inoculum 0-1” value (Candida albicans [4]; IP 0.1 × 3 mg/kg) was 3 #/10 Mice, the “Death, days post-inoculum 2-3” value (Candida albicans [4]; IP 0.1 × 3 mg/kg) was 4 #/10 Mice and the “Death, days post-inoculum 4-6” value (Candida albicans [4]; IP 0.1 × 3 mg/kg) was 1 #/10 Mice. For the same compound, the “Death, days post-inoculum 7-9” value (Candida albicans [4]; IP 0.1 × 3 mg/kg) was 0 #/10 Mice, the “Response Inc. %” value (Candida albicans [4]; IP 0.1 × 3 mg/kg) was 0% and the “Survivor No.” value (Candida albicans [4]; IP 0.1 × 3 mg/kg) was 2. The “Death, days post-inoculum 0-1” value (Candida albicans [4]; IP 1 × 3 mg/kg) was 2 #/10 Mice, the “Death, days post-inoculum 2-3” value (Candida albicans [4]; IP 1 × 3 mg/kg) was 3 #/10 Mice and the “Death, days post-inoculum 4-6” value (Candida albicans [4]; IP 1 × 3 mg/kg) was 1 #/10 Mice. The “Death, days post-inoculum 7-9” value (Candida albicans [4]; IP 1 × 3 mg/kg) was 0 #/10 Mice, the “Response Inc. %” value (Candida albicans [4]; IP 1 × 3 mg/kg) was 20% and the “Survivor No.” value (Candida albicans [4]; IP 1 × 3 mg/kg) was 4. The “Death, days post-inoculum 0-1” value (Candida albicans [4]; IP 10 × 3 mg/kg) was 0 #/10 Mice, the “Death, days post-inoculum 2-3” value (Candida albicans [4]; IP 10 × 3 mg/kg) was 5 #/10 Mice and the “Death, days post-inoculum 4-6” value (Candida albicans [4]; IP 10 × 3 mg/kg) was 1 #/10 Mice. The “Death, days post-inoculum 7-9” value (Candida albicans [4]; IP 10 × 3 mg/kg) was 0 #/10 Mice, the “Response Inc. %” value (Candida albicans [4]; IP 10 × 3 mg/kg) was 20% and the “Survivor No.” value (Candida albicans [4]; IP 10 × 3 mg/kg) was 4. The “Death, days post-inoculum 0-1” value (Candida albicans [4]; IP 100 × 3 mg/kg) was 6 #/10 Mice, the “Death, days post-inoculum 2-3” value (Candida albicans [4]; IP 100 × 3 mg/kg) was 4 #/10 Mice and the “Death, days post-inoculum 4-6” value (Candida albicans [4]; IP 100 × 3 mg/kg) was 0 #/10 Mice. The “Death, days post-inoculum 7-9” value (Candida albicans [4]; IP 100 × 3 mg/kg) was 0 #/10 Mice, the “Response Inc. %” value (Candida albicans [4]; IP 100 × 3 mg/kg) was 0% and the “Survivor No.” value (Candida albicans [4]; IP 100 × 3 mg/kg) was 0. The “in vivo immunomodulation activity” value (Candida albicans [4]; summary, no dose stated) was “moderate”, the inhibition at 0.01 µM (P59fyn Tyrosine Kinase; 0.01 μM) was 1% and the inhibition at 1 µM (P59fyn Tyrosine Kinase; 1 μM) was 0%. For the same compound, the inhibition at 100 µM (P59fyn Tyrosine Kinase; 100 μM) was 15%, the “activity in treatment of Lichen rubber planus” value (Lichen ruber planus) was “strong activity” and the “Minimum inhibitory concentration (MIC)” value (Pseudomonas aeruginosa) was greater than 0.5%. For the same compound, the antiviral activity (coxsackie B2 virus) was “no activity”, the “mutagenicity (Ames test)” value (bacterial revertants) was “not mutagenic” and the “mutagenicity (Ames test)” value (bacterial revertants; listed as rhamnolipid II) was “negative”.
